According to ChEMBL document CHEMBL5154925, “Design and Optimization of Thienopyrimidine Derivatives as Potent and Selective PI3Kδ Inhibitors for the Treatment of B-Cell Malignancies” (J Med Chem, 2022):
pIC50: −log10 of the molar value. Converted amounts (≈) assume the structure as drawn.

Key:
[1] = biological target: Phosphatidylinositol 4,5-bisphosphate 3-kinase catalytic subunit alpha isoform (Homo sapiens, UniProt P42336); experiment: Inhibition of PI3Kalpha (unknown origin) using PIP2 as substrate measured after 1 hr in presence of ATP by ADP-glo luminescence assay
[2] = biological target: T1, Phosphatidylinositol 4,5-bisphosphate 3-kinase catalytic subunit delta isoform (Homo sapiens, UniProt O00329); experiment: Inhibition of PI3Kdelta (unknown origin) using PIP2 as substrate measured after 1 hr in presence of ATP by ADP-glo luminescence assay
T1 sequence (O00329 whole entry): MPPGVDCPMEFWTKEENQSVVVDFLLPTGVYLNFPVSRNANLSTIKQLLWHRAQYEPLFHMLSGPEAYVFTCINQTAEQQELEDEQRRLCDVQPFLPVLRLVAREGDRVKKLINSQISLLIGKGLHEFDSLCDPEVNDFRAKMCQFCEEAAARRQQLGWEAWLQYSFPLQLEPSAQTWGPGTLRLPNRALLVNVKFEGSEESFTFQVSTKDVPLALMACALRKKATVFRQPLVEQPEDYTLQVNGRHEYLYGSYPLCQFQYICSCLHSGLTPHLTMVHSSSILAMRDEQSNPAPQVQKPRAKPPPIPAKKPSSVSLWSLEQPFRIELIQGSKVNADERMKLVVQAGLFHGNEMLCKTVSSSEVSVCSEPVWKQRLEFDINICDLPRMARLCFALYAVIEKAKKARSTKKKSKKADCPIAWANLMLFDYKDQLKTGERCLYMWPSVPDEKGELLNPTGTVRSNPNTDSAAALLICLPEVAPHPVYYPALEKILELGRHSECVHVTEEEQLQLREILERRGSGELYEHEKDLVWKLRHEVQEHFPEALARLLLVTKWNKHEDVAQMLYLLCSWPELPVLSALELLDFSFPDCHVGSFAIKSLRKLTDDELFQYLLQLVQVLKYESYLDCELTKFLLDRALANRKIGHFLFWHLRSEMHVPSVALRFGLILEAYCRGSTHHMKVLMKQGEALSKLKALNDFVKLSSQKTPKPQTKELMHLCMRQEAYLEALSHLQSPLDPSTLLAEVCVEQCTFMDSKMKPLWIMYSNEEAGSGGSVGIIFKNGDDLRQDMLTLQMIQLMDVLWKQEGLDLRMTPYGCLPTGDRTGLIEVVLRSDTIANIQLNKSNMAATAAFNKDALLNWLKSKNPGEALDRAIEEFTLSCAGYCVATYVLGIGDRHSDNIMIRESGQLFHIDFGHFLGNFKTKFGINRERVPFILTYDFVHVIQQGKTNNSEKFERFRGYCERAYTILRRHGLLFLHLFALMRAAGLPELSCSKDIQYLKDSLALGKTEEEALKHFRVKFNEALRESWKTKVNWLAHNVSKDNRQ

[3] = Microsomal stability in mouse liver microsomes assessed as intrinsic clearance; assay type: ADME, Microsome; conditions: read-out: CLH
[4] = biological target: T2, Phosphatidylinositol 4,5-bisphosphate 3-kinase catalytic subunit beta isoform (Homo sapiens, UniProt P42338); experiment: Inhibition of PI3Kbeta (unknown origin) using PIP2 as substrate measured after 1 hr in presence of ATP by ADP-glo luminescence assay
[5] = biological target: Phosphatidylinositol 4,5-bisphosphate 3-kinase catalytic subunit gamma isoform (Homo sapiens, UniProt P48736); experiment: Inhibition of PI3Kgamma (unknown origin) using PIP2 as substrate measured after 1 hr in presence of ATP by ADP-glo luminescence assay
[6] = biological target: Serine/threonine-protein kinase mTOR (Homo sapiens, UniProt P42345); experiment: Inhibition of mTOR (unknown origin)
[7] = biological target: T1, Phosphatidylinositol 4,5-bisphosphate 3-kinase catalytic subunit delta isoform; experiment: Inhibition of PI3Kdelta in IgM stimulated human Raji cells incubated for 10 mins by AlphaLISA assay; assay type: cell-based
[8] = biological target: Phosphatidylinositol 4,5-bisphosphate 3-kinase catalytic subunit alpha isoform (Mus musculus, UniProt P42337); experiment: Inhibition of PI3Kalpha in IGF-1 stimulated mouse C2C12 cells incubated for 10 mins by AlphaLISA assay; assay type: cell-based
[9] = biological target: T2, Phosphatidylinositol 4,5-bisphosphate 3-kinase catalytic subunit beta isoform; experiment: Inhibition of PI3Kbeta in LPA stimulated human PC-3 cells incubated for 10 mins by AlphaLISA assay; assay type: cell-based
[10] = biological target: Phosphatidylinositol 4,5-bisphosphate 3-kinase catalytic subunit gamma isoform (Mus musculus, UniProt Q9JHG7); experiment: Inhibition of PI3Kgamma in C5a stimulated mouse RAW264.7 cells incubated for 10 mins by AlphaLisa assay; assay type: cell-based
[11] = Solubility of the compound in PBS; assay type: physicochemical
[12] = Plasma protein binding in mouse; assay type: ADME, cell-free; conditions: read-out: PPB (converted)
[13] = Microsomal stability in mouse liver microsomes assessed as half life; assay type: ADME, Microsome
[14] = Solubility of the compound in FaSSIF; assay type: physicochemical

Chain of Phosphatidylinositol 4,5-bisphosphate 3-kinase catalytic subunit alpha isoform (Homo sapiens, UniProt P42336) (P42336 whole entry, canonical isoform): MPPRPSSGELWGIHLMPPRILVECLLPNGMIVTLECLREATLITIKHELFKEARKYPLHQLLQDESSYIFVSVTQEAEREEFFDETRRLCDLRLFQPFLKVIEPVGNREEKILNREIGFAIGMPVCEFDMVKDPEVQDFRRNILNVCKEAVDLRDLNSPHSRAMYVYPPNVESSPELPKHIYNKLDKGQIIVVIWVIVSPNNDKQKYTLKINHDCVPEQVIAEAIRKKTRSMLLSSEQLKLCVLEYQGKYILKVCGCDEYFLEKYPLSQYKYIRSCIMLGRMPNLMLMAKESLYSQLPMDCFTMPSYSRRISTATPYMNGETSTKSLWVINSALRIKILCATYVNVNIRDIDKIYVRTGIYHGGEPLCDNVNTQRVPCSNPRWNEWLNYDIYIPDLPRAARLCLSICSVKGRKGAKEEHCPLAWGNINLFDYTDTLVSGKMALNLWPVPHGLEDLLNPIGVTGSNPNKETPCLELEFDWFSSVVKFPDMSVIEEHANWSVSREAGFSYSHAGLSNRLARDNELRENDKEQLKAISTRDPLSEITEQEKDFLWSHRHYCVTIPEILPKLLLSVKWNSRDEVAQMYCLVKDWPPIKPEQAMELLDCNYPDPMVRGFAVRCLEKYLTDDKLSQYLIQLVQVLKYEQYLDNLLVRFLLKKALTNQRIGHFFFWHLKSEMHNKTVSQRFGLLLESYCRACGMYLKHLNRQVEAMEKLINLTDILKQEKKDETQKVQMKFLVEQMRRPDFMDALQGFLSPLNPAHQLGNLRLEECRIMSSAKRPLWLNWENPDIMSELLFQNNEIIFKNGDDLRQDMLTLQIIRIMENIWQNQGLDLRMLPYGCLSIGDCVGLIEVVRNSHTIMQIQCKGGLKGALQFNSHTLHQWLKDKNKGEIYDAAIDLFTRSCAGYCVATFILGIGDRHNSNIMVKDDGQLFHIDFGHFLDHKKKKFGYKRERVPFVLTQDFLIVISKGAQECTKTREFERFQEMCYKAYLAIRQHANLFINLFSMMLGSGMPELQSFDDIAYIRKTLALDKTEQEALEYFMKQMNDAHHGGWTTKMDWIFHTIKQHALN
T2 sequence (P42338 whole entry, canonical isoform): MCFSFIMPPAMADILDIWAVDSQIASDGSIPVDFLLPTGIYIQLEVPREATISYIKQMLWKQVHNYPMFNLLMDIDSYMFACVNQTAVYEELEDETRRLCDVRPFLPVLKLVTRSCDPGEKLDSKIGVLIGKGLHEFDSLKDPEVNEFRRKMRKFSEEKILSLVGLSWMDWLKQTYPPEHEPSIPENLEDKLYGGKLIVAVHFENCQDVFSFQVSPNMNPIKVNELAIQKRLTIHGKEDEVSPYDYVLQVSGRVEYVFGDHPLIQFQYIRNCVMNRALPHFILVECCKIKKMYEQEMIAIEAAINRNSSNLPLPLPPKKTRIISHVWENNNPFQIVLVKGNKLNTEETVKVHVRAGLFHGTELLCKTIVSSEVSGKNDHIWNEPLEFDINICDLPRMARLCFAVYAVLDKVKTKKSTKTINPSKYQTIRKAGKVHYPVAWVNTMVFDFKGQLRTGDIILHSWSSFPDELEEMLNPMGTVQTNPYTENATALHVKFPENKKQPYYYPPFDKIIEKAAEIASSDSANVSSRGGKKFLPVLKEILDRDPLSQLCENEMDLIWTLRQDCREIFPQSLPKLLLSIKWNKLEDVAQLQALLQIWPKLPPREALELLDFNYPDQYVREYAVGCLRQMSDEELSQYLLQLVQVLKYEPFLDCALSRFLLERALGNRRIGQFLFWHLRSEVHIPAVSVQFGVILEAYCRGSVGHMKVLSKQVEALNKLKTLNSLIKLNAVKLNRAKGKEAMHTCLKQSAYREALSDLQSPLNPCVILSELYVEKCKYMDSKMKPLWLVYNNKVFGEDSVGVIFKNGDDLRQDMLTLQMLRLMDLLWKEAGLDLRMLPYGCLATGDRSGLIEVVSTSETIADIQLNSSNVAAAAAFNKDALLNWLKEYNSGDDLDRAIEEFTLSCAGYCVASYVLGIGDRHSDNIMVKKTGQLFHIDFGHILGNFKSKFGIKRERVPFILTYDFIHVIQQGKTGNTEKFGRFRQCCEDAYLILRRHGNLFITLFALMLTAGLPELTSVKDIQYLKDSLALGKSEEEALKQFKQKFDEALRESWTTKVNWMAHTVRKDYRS
Chain of Phosphatidylinositol 4,5-bisphosphate 3-kinase catalytic subunit gamma isoform (Mus musculus, UniProt Q9JHG7) (Q9JHG7 whole entry, canonical isoform): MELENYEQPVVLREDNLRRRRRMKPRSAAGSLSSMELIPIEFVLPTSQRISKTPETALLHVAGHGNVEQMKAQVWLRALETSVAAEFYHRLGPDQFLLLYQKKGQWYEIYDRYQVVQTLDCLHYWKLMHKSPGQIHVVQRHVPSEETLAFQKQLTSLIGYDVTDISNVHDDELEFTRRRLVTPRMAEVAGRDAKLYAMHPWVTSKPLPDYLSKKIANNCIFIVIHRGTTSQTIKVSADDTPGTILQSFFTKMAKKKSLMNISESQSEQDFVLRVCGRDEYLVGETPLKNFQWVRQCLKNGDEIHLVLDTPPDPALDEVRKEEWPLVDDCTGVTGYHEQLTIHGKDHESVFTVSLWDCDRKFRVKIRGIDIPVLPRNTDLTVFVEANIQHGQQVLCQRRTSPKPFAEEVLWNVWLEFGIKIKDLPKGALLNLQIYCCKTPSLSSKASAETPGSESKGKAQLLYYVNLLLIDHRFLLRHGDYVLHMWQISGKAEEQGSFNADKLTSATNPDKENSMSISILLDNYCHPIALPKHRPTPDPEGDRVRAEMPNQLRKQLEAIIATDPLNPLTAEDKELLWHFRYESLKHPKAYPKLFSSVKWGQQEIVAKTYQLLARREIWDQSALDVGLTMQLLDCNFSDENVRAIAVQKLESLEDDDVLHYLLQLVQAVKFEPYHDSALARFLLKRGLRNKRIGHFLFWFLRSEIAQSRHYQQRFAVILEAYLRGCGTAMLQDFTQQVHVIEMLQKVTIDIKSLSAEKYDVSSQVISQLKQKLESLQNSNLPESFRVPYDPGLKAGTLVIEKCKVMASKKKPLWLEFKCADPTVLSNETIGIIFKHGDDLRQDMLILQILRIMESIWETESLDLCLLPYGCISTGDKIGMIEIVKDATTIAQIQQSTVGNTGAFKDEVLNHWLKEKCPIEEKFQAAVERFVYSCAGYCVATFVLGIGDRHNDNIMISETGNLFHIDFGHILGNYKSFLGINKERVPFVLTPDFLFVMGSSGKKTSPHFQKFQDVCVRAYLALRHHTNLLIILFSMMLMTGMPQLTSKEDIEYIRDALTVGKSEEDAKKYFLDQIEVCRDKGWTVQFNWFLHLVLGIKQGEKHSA
Chain of Phosphatidylinositol 4,5-bisphosphate 3-kinase catalytic subunit alpha isoform (Mus musculus, UniProt P42337) (P42337 whole entry, canonical isoform): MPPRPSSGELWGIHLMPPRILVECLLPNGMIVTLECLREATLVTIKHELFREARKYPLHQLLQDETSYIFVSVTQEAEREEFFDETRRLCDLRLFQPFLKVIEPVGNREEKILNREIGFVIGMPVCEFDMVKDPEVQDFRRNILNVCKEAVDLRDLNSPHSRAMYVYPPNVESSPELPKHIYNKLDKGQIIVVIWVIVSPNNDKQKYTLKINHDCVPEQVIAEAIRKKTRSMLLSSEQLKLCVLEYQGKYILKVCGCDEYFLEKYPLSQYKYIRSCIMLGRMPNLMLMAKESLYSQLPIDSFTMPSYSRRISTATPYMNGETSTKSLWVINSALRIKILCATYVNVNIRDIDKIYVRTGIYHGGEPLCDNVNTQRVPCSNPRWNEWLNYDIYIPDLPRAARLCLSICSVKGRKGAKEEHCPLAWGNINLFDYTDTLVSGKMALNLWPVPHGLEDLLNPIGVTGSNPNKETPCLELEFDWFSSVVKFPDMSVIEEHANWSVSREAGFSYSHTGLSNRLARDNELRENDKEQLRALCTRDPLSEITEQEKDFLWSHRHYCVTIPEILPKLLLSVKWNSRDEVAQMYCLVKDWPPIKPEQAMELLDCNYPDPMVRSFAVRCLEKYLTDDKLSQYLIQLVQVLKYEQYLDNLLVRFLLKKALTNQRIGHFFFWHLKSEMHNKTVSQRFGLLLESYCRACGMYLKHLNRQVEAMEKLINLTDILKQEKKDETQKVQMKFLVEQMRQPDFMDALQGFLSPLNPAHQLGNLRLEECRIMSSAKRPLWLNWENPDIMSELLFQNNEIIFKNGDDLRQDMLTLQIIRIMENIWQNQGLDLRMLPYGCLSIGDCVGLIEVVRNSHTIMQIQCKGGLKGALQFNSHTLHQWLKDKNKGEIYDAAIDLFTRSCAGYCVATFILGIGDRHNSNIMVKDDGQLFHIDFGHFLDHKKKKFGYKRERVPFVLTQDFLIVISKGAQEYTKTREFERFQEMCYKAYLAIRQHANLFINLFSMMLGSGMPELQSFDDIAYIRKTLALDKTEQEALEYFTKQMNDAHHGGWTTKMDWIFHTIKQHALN

SMILES | pIC50 [1] | pIC50 [2] | further results
COc1cc(-c2cc3c(N[C@H]4CCN(C(=O)C(C)(C)C)C4)ncnc3s2)cnc1OC | 6.10 | 7.28 | –
COc1cc(-c2cc3c(N[C@H]4CCN(C(=O)c5ccccc5)C4)ncnc3s2)cnc1OC | 6.40 | 7.59 | –
COc1cc(-c2cc3c(O[C@H]4CCN(C(=O)C5CC5)C4)ncnc3s2)cnc1OC | 6.49 | 8.00 | –
CCC(=O)N1CC[C@H](Oc2ncnc3sc(-c4cnc(OC)c(C(F)(F)F)c4)cc23)C1 | < 5.00 | 6.57 | –
CCC(=O)N1CC[C@H](Nc2ncnc3sc(-c4cnc(OC)c(F)c4)cc23)C1 | 5.47 | 7.27 | –
CCC(=O)N1CC[C@H](Nc2ncnc3sc(-c4ccc(OC)nc4)cc23)C1 | 5.54 | 6.87 | –
CCC(=O)N1CC[C@H](Nc2ncnc3sc(-c4cnc(OC)c(C)c4)cc23)C1 | 5.20 | 7.35 | –
COc1cc(-c2cc3c(O[C@H]4CCN(C(=O)C5CCC5)C4)ncnc3s2)cnc1OC | 6.41 | 8.48 | CLint scaled [3]: 1070 mL/min/kg; pIC50 [4]: 5.71; pIC50 [5]: 5.54; pIC50 [6]: < 5.00; pIC50 [7]: 7.12; pIC50 [8]: 4.55; pIC50 [9]: 5.21; pIC50 [10]: 5.22; solubility [11]: 1.41 µM (≈ 0.621 µg/mL); fraction unbound [12]: 0.011; half-life [13]: 5.09 min; solubility [14]: 5.89 µM (≈ 2.59 µg/mL)
CCC(=O)N1CC[C@H](Nc2ncnc3sc(-c4cncc(S(C)(=O)=O)c4)cc23)C1 | 5.92 | 7.42 | –
CCC(=O)N1CC[C@H](Nc2ncnc3sc(-c4ccc(OC)c(F)c4)cc23)C1 | 5.25 | 6.74 | –
CCC(=O)N1CC[C@H](Nc2ncnc3sc(-c4ccc(S(C)(=O)=O)cc4)cc23)C1 | < 5.00 | 6.33 | –
COc1cc(-c2cc3c(N[C@H]4CCN(C(=O)C5CCCC5)C4)ncnc3s2)cnc1OC | 6.32 | 8.07 | –
COc1cc(-c2cc3c(N[C@H]4CCN(C(=O)C(C)C)C4)ncnc3s2)cnc1OC | 6.62 | 7.26 | –
CCC(=O)N1CC[C@H](Oc2ncnc3sc(-c4cnc(OC)c(OC)c4)cc23)C1 | 6.37 | 7.96 | –
